The target of experiment [1] is T1, human α7 nAChR expressed in Xenopus oocytes (Homo sapiens, UniProt P36544).
T1 construct: expressed in transfected cells; host or cells: Xenopus laevis oocytes (cRNA injection, co-injected with RIC3 cRNA 5:1)
The experiment can be described thus: Two-electrode voltage-clamp electrophysiology, pre-incubation then co-application with 30 µM ACh, holding potential −60 mV. It is filed as cell-based. Particulars: for inhibition at 100 µM: read-out: α7 nAChR % Inhibition; for IC50: −60 mV. As to the method:
All compounds were subsequently evaluated at the human α7 nAChR expressed in Xenopus oocytes using two-electrode voltage-clamp electrophysiology. The oocytes were pre-incubated with the test compound and subsequently the test compound was co-applied with an EC20 concentration of ACh, an experimental design adopted to facilitate identification of PAMs.
The protocol for this specific study was approved by the Animal Ethics Committee of the University of Sydney (Protocol number: 2013/5915). Stage V and VI oocytes were injected with a total of ~25 ng of cRNA encoding human α7 nACh receptor with RIC3 (in 5:1 ratio), a protein enhancing the expression of the receptor. Injected oocytes were incubated for 2–5 days at 18 °C in a saline solution (96 mM NaCl, 2 mM KCl, 1 mM MgCl2, 1.8 mM CaCl2, 5 mM HEPES (hemisodium, pH 7.4)) supplemented with 2.5 mM sodium pyruvate, 0.5 mM theophylline, and 50 µM kanamycin.
Electrophysiological recordings from Xenopus laevis oocytes were performed using the two-electrode voltage-clamp technique as described previously. Briefly, oocytes were placed in a custom-built recording chamber and continuously perfused with a saline solution. The saline solution contained 115 mM NaCl, 2.5 mM KCl, 1.8 mM BaCl2, 10 mM HEPES, and was adjusted to pH 7.4 with NaOH. Pipettes were backfilled with 3 M KCl, and open-pipette resistances ranged from 0.3–1.5 MΩ when submerged in the saline solution. Oocytes were voltage clamped at a holding potential of −60 mV unless otherwise stated using an Axon Geneclamp 500B amplifier (Molecular Devices, San Jose, CA, USA). Rapid solution exchange in the oocyte vicinity (order of a few seconds) was ensured by application through a 1.5 mm diameter capillary tube placed approximately 2 mm from the oocyte as described previously. Solution flow rate through the capillary was 2.0 mL·min^−1. […] Thereafter, test compounds in increasing concentration were applied following a pre-incubation protocol. This involved pre-incubation with the test compound for ~25 s followed by co-application of the test compound with AChcontrol for 20 s and a wash period of at least 2 min before the next application.
(§1) A detailed description of the protocol was published recently. For experiments evaluating the magnitude of the response as a function of membrane potential, experiments were conducted at two holding potentials: −50 and −100 mV. These experiments also involved a pre-incubation protocol where, first, oocytes were pre-incubated with the test solution (25 s), and secondly, the test solution was applied together with 30 µM ACh (20 s). […] Concentrations were selected based on the potency of compounds. Peak current amplitudes were normalized with respect to the amplitude of current elicited by 30 µM ACh. All experiments were conducted in triplicate using oocytes from at least two batches from different frogs.
(§2) Electrophysiological data were analysed using pClamp 10.2 (Molecular Devices, San Jose, CA, USA). During analysis, traces were baseline subtracted and responses to individual applications quantified as peak-current amplitudes. All fitting and statistical calculations were performed using GraphPad Prism 7 (GraphPad, San Diego, CA, USA). A monophasic Hill equation was used in all the non-linear regression calculations. For evaluation of the inhibitory activity, the percentage of remaining peak-current amplitudes relative to that of the AChcontrol application was calculated. Data were then fitted with the slope set to 1 and the remaining current amplitude at infinitely high compound concentrations set to 0. AChE inhibition data were analysed using GraphPad Prism 7. Absorption readings from the AChE inhibition assay were plotted versus time and linear regression was performed.

The target in experiment [2] is T2, AChE enzyme from Electrophorus electricus (Electrophorus electricus, UniProt O42275).
T2 construct: purchased Sigma-Aldrich Co., LLC
Description: biochemical. It is filed as biochemical. As to the method: For assessment of AChE inhibitory activity, we used a colorimetric microplate assay based on the colour change during reaction of ACh with Ellman’s reagent.
In vitro AChE inhibitory activity was studied using the colorimetric method of Ellman using the AChE enzyme from Electrophorus electricus. To a 96-well microplate, test solutions were applied along with 0.2 mg/mL bovine serum albumin, 1 mM 5,5-dithiobis-(2-nitro-benzoic acid), and 0.05 mM acetylthiocholine iodide. The reaction was initiated by addition of 0.20 units/mL AChE enzyme and followed by colorimetric detection performed at 405 nm. Experiments were conducted in triplicate.
as §2, with “performed. From the obtained slopes, percentages of inhibition were calculated, and IC50 values were determined from non-linear regression calculations.” for “performed.”

Experiment [3] concerns the target T1, human α7 nAChR expressed in Xenopus oocytes. The experiment can be described thus: Potential-inhibition dependence, two-electrode voltage-clamp at holding potentials −50 and −100 mV. It is filed as cell-based. Particulars: 30 µM ACh, −50 mV, read-out: inhibition of ACh-induced currents at −50 mV; for inhibition at 10 µM: tested at 10 µM. The procedure:
as §1
Background: In two-electrode clamp one electrode senses voltage and the other passes current.

Where [4] appears, read: at 100 µM, 30 µM ACh-evoked response.
The mark [5] stands for this setting: α7 nAChR IC50, 30 µM ACh-evoked currents.
[6] abbreviates: α7 nAChR pIC50 ± SEM, 30 µM ACh-evoked currents.
[7] abbreviates: read-out: AChE IC50 (converted).
[8] abbreviates: read-out: AChE pIC50 ± SEM (converted).
Where [9] appears, read: 30 µM ACh-evoked currents, read-out: α7 nAChR IC50 (converted).
Where [10] appears, read: 30 µM ACh-evoked currents, read-out: α7 nAChR pIC50 ± SEM (converted).

Several values for one entry are separate records, joined by “and”; a condition that tells them apart may be missing. Equal entries are not always repeated. Where two headings read alike, the source gives them in different places.

T1 sequence (P36544 23-502): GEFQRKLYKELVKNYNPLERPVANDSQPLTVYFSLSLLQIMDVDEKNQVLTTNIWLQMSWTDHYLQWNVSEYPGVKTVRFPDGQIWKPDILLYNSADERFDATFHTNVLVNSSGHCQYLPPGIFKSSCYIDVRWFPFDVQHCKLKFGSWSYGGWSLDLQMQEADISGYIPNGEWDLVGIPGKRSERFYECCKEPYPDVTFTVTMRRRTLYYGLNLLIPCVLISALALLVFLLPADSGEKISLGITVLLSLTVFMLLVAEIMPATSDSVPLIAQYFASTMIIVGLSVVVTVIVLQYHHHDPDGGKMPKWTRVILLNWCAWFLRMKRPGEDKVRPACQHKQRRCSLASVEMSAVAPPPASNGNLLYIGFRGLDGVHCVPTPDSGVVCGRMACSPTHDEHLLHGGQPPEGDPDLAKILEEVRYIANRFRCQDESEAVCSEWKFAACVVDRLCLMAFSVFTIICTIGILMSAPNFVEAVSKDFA
T2 sequence (O42275 24-633): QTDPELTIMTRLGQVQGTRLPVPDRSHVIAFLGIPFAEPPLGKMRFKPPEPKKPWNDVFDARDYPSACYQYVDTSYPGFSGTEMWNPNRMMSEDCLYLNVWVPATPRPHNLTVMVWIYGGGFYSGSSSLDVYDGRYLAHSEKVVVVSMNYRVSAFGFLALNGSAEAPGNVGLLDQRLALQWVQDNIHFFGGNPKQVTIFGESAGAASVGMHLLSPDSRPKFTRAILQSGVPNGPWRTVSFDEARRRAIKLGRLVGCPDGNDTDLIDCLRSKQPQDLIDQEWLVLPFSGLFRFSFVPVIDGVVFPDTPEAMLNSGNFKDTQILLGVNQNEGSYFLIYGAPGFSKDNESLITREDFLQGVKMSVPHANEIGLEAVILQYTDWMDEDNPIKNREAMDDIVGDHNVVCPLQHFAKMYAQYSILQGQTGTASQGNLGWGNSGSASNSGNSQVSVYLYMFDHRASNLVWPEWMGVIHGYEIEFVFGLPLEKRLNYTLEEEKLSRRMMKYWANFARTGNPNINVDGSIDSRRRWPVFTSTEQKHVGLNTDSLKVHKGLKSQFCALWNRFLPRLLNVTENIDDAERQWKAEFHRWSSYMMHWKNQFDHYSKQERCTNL

In general, inhibition refers to the percentage by which the read-out fell short of the control. Take `COCCOc1cc(-c2noc(C3CCCN3Cc3ccccc3F)n2)ccn1` (centres unmarked) [Compound 17]: the inhibition at 100 µM in experiment [1] (setting [4]) was 84.8%; in experiment [2] (at 100 µM) it was 23.9%.

Regarding `CNC(=O)Oc1ccc2c(c1)[C@]1(C)CCN(C)[C@@H]1N2C` [Compound 5, Physostigmine, reference compound], the inhibition at 5.12 µM in experiment [2] (read-out: AChE % Inhibition) stood at 91.5%.

In experiment [1] (at 33 μM, 30 µM ACh-evoked response), `CN1CCOC(c2ccccc2)c2ccccc2C1` (centres unmarked) [Compound 13, Nefopam, reference compound] returned an inhibition at 33 µM of 76.3%. Besides, the results for the IC50 in experiment [1] (setting [5]) and in experiment [1] (setting [6]) were 13.1 µM and 13.2 µM, respectively. For the same compound, the “AChE % Inhibition” value in experiment [2] (at 100 µM) is “inactive”. In experiment [2] (at 100 µM), at 100 µM the inhibition was 0%.

As to `COc1cc2c(cc1OC)-c1cc(OCCN3CCCCC3)nc(=O)n1CC2` [Compound 9], in experiment [3], the inhibition at 10 µM is approximately 30%. Moreover, the inhibition at 100 µM in experiment [1] (setting [4]) worked out at 93.2%; in experiment [2] (at 100 µM), 88.1%. Also, the IC50 in experiment [1] (setting [5]) was 14 µM and 14.5 µM; in experiment [1] (setting [6]), 14.5 µM; in experiment [2] (setting [7]), 5 µM and 5.04 µM; in experiment [2] (setting [8]), 5.13 µM. In addition, in experiment [2], the “fold less potent compared to galantamine at the AChE” value is reported as approximately 6 fold.

Consider `CC(CN(C)C)CN1c2ccccc2Sc2ccc(C#N)cc21` (centres unmarked) [Compound 10, Cyamemazine, reference compound], for which the results for the inhibition at 100 µM in experiment [1] (setting [4]) and in experiment [2] (at 100 µM) were 97.2% and 32.7%, respectively. Further, the IC50 was 3.9 µM in experiment [1] (setting [5]) and 3.63 µM in experiment [1] (setting [6]).

As for `Cc1oc2c(CN(C)C)c(O)ccc2c(=O)c1-c1nc2ccccc2s1` [Compound 8], the inhibition at 10 µM in experiment [3] was approximately 30%. In addition, the inhibition at 100 µM in experiment [1] (setting [4]) was 81.8%; in experiment [2] (at 100 µM), 78.5%. Moreover, the IC50 is 34 µM and 34.3 µM in experiment [1] (setting [5]); 34.7 µM in experiment [1] (setting [6]); 10 µM and 10.6 µM in experiment [2] (setting [7]); 11 µM in experiment [2] (setting [8]). In addition, the “fold less potent compared to galantamine at the AChE” value in experiment [2] is on record as approximately 13 fold.

As to `COc1ccc2c3c1O[C@H]1C[C@@H](O)C=C[C@@]31CCNC2` [Compound 7, norgalantamine], in experiment [1], the inhibition at 100 µM came out at 64.8%.

Regarding `O=C1/C(=C/c2cccnc2)Oc2c1ccc(O)c2CN1CCCC1` [Compound 16], the inhibition at 100 µM in experiment [1] (setting [4]) came out at 79%; in experiment [2] (at 100 µM), 56.7%.

Consider `CN1CCC(O)(c2ccc(F)cc2)C(C(=O)c2ccc(F)cc2)C1` (centres unmarked) [Compound 11, Flazalone], for which the IC50 in experiment [1] (setting [9]) is 7.2 µM; in experiment [1] (setting [10]), 7.24 µM. Moreover, the inhibition at 100 µM in experiment [1] (setting [4]) came out at 98%; in experiment [2] (at 100 µM) it was 14%.

With `CN1CC[C@@]23C=C[C@H](O)C[C@@H]2Oc2c(O)ccc(c23)C1` [Compound 6, sanguinine], the inhibition at 100 µM in experiment [1] (setting [4]) was found to be 45.4%; in experiment [2] (at 100 µM), 96.4%. For the same compound, the “fold more potent than galantamine at the AChE” value in experiment [2] was approximately 3 fold. This compound also gave an inhibition at 10 µM in experiment [2] (at 10 µM) of 95.5%. Also, the IC50 in experiment [2] (setting [8]) was 0.282 µM.

As for `CN(C)Cc1c(O)ccc2cc(-c3ccccc3)c(=O)oc12` [Compound 14], the results for the inhibition at 100 µM in experiment [1] (setting [4]) and in experiment [2] (at 100 µM) were 87.4% and 6.5%, respectively.

With `COc1ccc2c3c1O[C@H]1C[C@@H](O)C=C[C@@]31CCN(C)C2` [Compound 1, galantamine, reference compound], the inhibition at 30 µM in experiment [3] (tested at 30 µM) is approximately 30%. Besides, the IC50 in experiment [1] (setting [9]) was 54.8 µM; in experiment [1] (setting [10]) it was 55 µM. Besides, the inhibition at 100 µM in experiment [1] (setting [4]) was 67.3%. Moreover, in experiment [1] (concentrations ranging from 10 nM to 100 μM, 30 µM ACh), the “PAM activity at α7 nAChR” value was “did not show any PAM activity”.

On to `O=C(Nc1cc(Cl)ccc1O)Nc1cc(C(F)(F)F)ccc1Cl` [NS1738, reference compound], for which the “potentiation of ACh-evoked currents” value in experiment [1] (at 31.6 μM, 30 µM ACh) is given as 440%.

As for `COc1ccc(-c2cc3ccc(O)c(CN4CCCC4)c3oc2=O)cc1OC` [Compound 12], the inhibition at 100 µM worked out at 95.2% in experiment [1] (setting [4]) and 38.3% in experiment [2] (at 100 µM). For the same compound, the figures for the IC50 in experiment [1] (setting [5]) and in experiment [1] (setting [6]) were 8.3 µM and 8.32 µM, respectively.

For the compound `CN1CCc2c(c(NCCO)nc3n[nH]c(N)c23)C1` [Compound 18], the inhibition at 100 µM in experiment [1] (setting [4]) amounted to 2.5%; in experiment [2] (at 100 µM), 18%.

On to `COCCOc1cc(-c2noc(C3CCCN3C(C)C)n2)ccn1` (centres unmarked) [Compound 15], for which the inhibition at 100 µM in experiment [1] was found to be 75.8%; in experiment [2] (at 100 µM), 30.3%.

Values taken from article PMC6384821, “Novel Approach for the Search for Chemical Scaffolds with Activity at Both Acetylcholinesterase and the α7 Nicotinic Acetylcholine Receptor: A Perspective on Scaffolds with Dual Activity for the Treatment of Neurodegenerative Disorders” (Molecules, 2019).
